This note sets out measurements from ChEMBL document CHEMBL1128621, “Design and synthesis of nonpeptidal endothelin receptor antagonists based on the structure of a cyclic pentapeptide” (Bioorg Med Chem Lett, 1995).

One experiment has as its target T1, Endothelin-1 receptor (Homo sapiens, UniProt P25101).
T1 sequence (P25101 whole entry): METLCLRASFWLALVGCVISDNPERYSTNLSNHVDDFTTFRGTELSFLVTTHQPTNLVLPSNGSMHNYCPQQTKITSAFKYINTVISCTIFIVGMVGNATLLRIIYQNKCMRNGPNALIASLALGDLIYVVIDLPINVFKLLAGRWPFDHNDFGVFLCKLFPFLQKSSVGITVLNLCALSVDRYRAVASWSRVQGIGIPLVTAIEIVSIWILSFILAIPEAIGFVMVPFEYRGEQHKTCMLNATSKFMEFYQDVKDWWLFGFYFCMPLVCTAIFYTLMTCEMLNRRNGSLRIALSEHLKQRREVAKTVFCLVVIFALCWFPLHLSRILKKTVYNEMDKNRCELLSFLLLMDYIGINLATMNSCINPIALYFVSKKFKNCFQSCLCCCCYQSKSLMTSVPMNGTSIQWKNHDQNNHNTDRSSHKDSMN
As to the kind of experiment: Affinity against ET A receptor.

In experiment [1] the target is T2, Endothelin receptor type B (Rattus norvegicus, UniProt P21451).
T2 sequence (P21451 whole entry): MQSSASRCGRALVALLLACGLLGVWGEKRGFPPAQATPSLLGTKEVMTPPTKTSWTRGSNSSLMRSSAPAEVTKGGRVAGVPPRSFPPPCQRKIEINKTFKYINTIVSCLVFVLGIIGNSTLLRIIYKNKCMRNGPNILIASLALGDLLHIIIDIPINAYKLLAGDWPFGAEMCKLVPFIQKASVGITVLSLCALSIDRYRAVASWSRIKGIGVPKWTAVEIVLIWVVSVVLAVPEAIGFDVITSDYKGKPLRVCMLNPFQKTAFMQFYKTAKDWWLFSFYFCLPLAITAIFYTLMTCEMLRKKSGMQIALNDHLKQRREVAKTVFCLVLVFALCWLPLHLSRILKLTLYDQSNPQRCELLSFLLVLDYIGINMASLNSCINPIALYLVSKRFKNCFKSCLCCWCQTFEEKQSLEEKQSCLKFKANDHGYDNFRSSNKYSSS
As to the kind of experiment: Affinity against ET B receptor.

Each structure is given as a SMILES string. pKi: −log10 of the molar value. Where a SMILES comes first, the peptide text is derived from it. [ ]: non-standard residue; d: D form. A value given as a limit tells only on which side of the number the result lay.

One may read the pKi as the negative decadic logarithm of the Ki, by convention in mol/L. Low values mean a high Ki, high ones a low Ki.

Take `CCCN1c2ccccc2C(=O)N(CC(=O)O)c2cc(Cc3c[nH]c4ccccc34)ccc21`: the pKi at Endothelin-1 receptor was 4.39; in experiment [1], 4.92. Regarding `CCCN1c2ccccc2C(=O)N(CC(=O)O)c2cc(NC(=O)c3cc4ccccc4[nH]3)ccc21`, the negative-log Ki (pKi) on Endothelin-1 receptor is 4.48; in experiment [1] it was 5.22. Take `CCCN1c2ccccc2C(=O)N(CC(=O)O)c2cc(NCc3cccc4ccccc34)ccc21`: the values for the negative logarithm of the Ki (pKi) (at Endothelin-1 receptor; in experiment [1]) were 4.77 and 5.05, respectively. Taken in the same sequence, the figures for `CCCN1c2ccccc2C(=O)N(CC(=O)O)c2cc(NC(=O)c3c[nH]c4ccccc34)ccc21` were 4.10 and 4.96.

Consider `CC(C)C[C@@H]1NC(=O)[C@@H](C(C)C)NC(=O)[C@@H]2CCCN2C(=O)[C@@H](CC(=O)O)NC(=O)[C@@H](Cc2cccc3ccccc23)NC1=O`, for which the pKi at Endothelin-1 receptor is 6.65. In the case of `CCCN1c2ccccc2C(=O)N(CC(=O)O)c2cc(NC(=O)c3cccc4ccccc34)ccc21`, the pKi on Endothelin-1 receptor is 4.08. In the case of `O=C(O)CN1C(=O)c2ccccc2Nc2ccc(OCc3cccc4ccccc34)cc21`, the pKi is 4.55 on Endothelin-1 receptor and 5.10 in experiment [1].

For the compound `CCCN1c2ccccc2C(=O)N(CC(=O)O)c2cc(NC(=O)Cc3c[nH]c4ccccc34)ccc21`, the results for the negative-log Ki (pKi) (at Endothelin-1 receptor; in experiment [1]) were 4.85 and 5.15, respectively. On to `CCCN1c2ccccc2C(=O)N(CC(=O)O)c2cc(OCc3cccc4ccccc34)ccc21`, for which the pKi at Endothelin-1 receptor is 5.15; in experiment [1], 4.22. The compound `CC(C)C[C@@H]1NC(=O)[C@@H](C(C)C)NC(=O)[C@@H]2CCCN2C(=O)[C@@H](CC(=O)O)NC(=O)[C@@H](Cc2ccccc2)NC1=O` gave a negative-log Ki (pKi) at Endothelin-1 receptor of 5.62. As for `O=C(O)CN1C(=O)c2ccccc2Nc2ccc(OCc3ccccc3)cc21`, the pKi at Endothelin-1 receptor is 3.96; in experiment [1] it was below 4.00. `CC(C)C[C@@H]1NC(=O)[C@@H](C(C)C)NC(=O)[C@@H]2CCCN2C(=O)[C@@H](CC(=O)O)NC(=O)[C@@H](Cc2c[nH]c3ccccc23)NC1=O` [BQ-123] (cyclo(L[dW][dD]P[dV])): the pKi at Endothelin-1 receptor is 7.74.
